Source: paper PMC10191551, “Safety, Tolerability, and Pharmacokinetics of Oral Ferric Maltol in Children With Iron Deficiency: Phase 1 Study” (JPGN Reports, 2021)

Details: in vivo
Procedure: The primary objectives were to assess iron uptake and ferric maltol pharmacokinetics. Serum iron and TSAT provided measures of iron uptake. In adults, dissociated maltol undergoes rapid glucuronidation and is cleared in urine as maltol glucuronide (36); therefore, in this study, plasma maltol glucuronide was measured to confirm the rate of clearance in children.
Sparse pharmacokinetic blood sampling was performed at baseline before the morning dose and at prespecified collection windows 0.5–6 hours after the morning dose on days 1 and 10, giving 3 to 6 samples per time point. The post-dose pharmacokinetic sample collection windows were 0.5–<1, 1–<2, 2–<3, 3–<4, and 4–<6 hours, with patients assigned to post-dose pharmacokinetic blood sampling schedules in sequential order at randomization. Individuals had the same schedule on days 1 and 10. Plasma maltol glucuronide and serum iron and TSAT were measured at each time point to calculate standard pharmacokinetic parameters.
The observed values for plasma maltol glucuronide and serum iron and TSAT were summarized by dose group and visit for the ITT population, as were changes from baseline in serum iron and TSAT. The ITT population was also used in the population pharmacokinetic analysis. […]

Cmax and AUC of maltol glucuronide: dose dependence: dose-dependent
SMILES: Cc1occc(=O)c1O[C@@H]1O[C@H](C(=O)O)[C@@H](O)[C@H](O)[C@H]1O [maltol glucuronide]
